The values that follow come from ChEMBL document CHEMBL1155024, “Microbial transformation of cinobufagin by Syncephalastrum racemosum” (J Nat Prod, 2008).

SMILES strings stand for the structures.

In the assay the test system is Bel-7402. Put plainly: Cytotoxicity against human Bel7402 cells by MTT assay. The format is functional, cell-based. For orientation: Formazan colour is commonly taken as a measure of viable cells.
Usually IC50 stands for the concentration that inhibits the measured activity by half. A low value points to higher potency. Consider `CC(=O)O[C@H]1[C@H]2O[C@]23[C@@H]2[C@@H](O)C[C@@H]4C[C@@H](O)CC[C@]4(C)[C@H]2CC[C@]3(C)[C@H]1c1ccc(=O)oc1`, for which the IC50 is 540 nM.

On to `CC(=O)O[C@H]1[C@H]2O[C@]23[C@@H]2CC[C@]4(O)C[C@@H](O)CC[C@]4(C)[C@H]2C[C@@H](O)[C@]3(C)[C@H]1c1ccc(=O)oc1`, for which the IC50 was found to be 660 nM.

Turning to `CC(=O)O[C@H]1[C@H]2O[C@]23[C@@H]2CC[C@@H]4C[C@@H](O)CC[C@]4(C)[C@H]2C[C@@H](O)[C@]3(C)[C@H]1c1ccc(=O)oc1`, the IC50 is 370 nM.

As to `CC(=O)O[C@H]1[C@H]2O[C@]23[C@@H]2CC[C@@H]4C[C@@H](O)CC[C@]4(C)[C@H]2CC[C@]3(C)[C@H]1c1ccc(=O)oc1` [CINOBUFAGIN], half-maximal inhibition (IC50) required 100 nM.

`CC(=O)O[C@H]1[C@H]2O[C@]23[C@@H]2CC[C@]4(O)C[C@@H](O)CC[C@]4(C)[C@H]2CC[C@]3(C)[C@H]1c1ccc(=O)oc1` [CINOBUFOTALIN] returned a half-maximal inhibitory concentration (IC50) of 1210 nM.
